For 7 molecules, IC50 and half-life results are on record in patent US10047087B2, “Substituted pyrazolo[1,5-A] pyridine as tropomyosin receptor kinase (TrK) inhibitors” (Dr. Reddy's Laboratories Ltd., priority 2011, dated 2018).

One series deals with T1, TrkA kinase (Homo sapiens, UniProt P04629).
T1 construct: purchased Upstate, USA
The series can be described thus: In vitro TrkA inhibitory activity using TR-FRET assay. Type of series: biochemical. The conditions noted are these: 5 ng TrkA, 500 μM ATP. A digest of the protocol:
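Kinase (5 ng) was preincubated with compound for 30 min at 20-35° C before adding 40 nM ULight poly GT and 500 μM ATP; stopped with EDTA after 30 min. Eu-anti-phosphotyrosine antibody (0.5 nM) was read at 615/665 nm with 1% DMSO final. Compounds showing >25% inhibition at 1 μM went to sigmoidal dose-response IC50 fitting.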

Series [1] can be described thus: Metabolic stability using Human Liver Microsomes (HLM). Type of series: in vitro ADME. The conditions noted are these: pooled human liver microsomes, compound 1 μM, 0.3 mg/ml microsomal protein, 1 mM NADPH. How it is done:
Stability Protocol: Metabolic Stability Using Rat Liver Microsomes (RLM) and Human Liver Microsomes (HLM).
This assay was performed using pooled male rat liver microsomes (In-house prepared as per SOP), Pooled Human liver microsomes (XENOTECH; Batch No— H0630-1110189)). The 100 μl reaction contains the compounds at 1 μM, 0.3 mg/ml microsomal protein and both the co-factors (1 mM NADPH) in buffer and the mixture was incubated at different time points (0, 15, 30, 45, 60, & 90 minutes). The reaction was stopped by the addition of equal volume of acetonitrile containing internal standard (Telmesartin). The precipitated protein was removed by centrifugation and the supernatant were analyzed LC/MS-MS method. The percent parent compound remaining was quantified by analysis using following formula (% parent compound remaining=(peak area at Time x/peak area at T0)×100. The intrinsic clearance was calculated using the following formula. CLint,app: (0.693/in vitro t½)(incubation volume/mg of microsomal protein)(45 mg microsomal protein/gram of liver)(20^a g of liver/kg body weight) • a: 20 and 45 g of liver/kg of body weight were used for human and rat, respectively (Lu C et al., DMD, 2006). Bio-analysis: It was performed in Multiple Reaction Monitoring mode (negative mode) using Applied Biosystems API 4000 coupled to Agilent Technologies 1100 series HPLC on a reverse phase column (Zorbax Eclipse XDB C18, 50×4.6 mm, 5 μm). Celecoxib was used as internal standard both in in-vitro and in-vivo experiments. Mobile phase used 0.05% […] water and acetonitrile (10:90) with a flow rate of 0.6 ml/minute. The injection volume was kept as 10 μl.

Where [2] appears, read: read-out: TrkA inhibition in-vitro IC50.
[3] abbreviates: both bounds given in nm, read-out: TrkA inhibitory activity in-vitro IC50.

Where two headings read alike, the source gives them in different places.

T1 sequence (P04629 33-796): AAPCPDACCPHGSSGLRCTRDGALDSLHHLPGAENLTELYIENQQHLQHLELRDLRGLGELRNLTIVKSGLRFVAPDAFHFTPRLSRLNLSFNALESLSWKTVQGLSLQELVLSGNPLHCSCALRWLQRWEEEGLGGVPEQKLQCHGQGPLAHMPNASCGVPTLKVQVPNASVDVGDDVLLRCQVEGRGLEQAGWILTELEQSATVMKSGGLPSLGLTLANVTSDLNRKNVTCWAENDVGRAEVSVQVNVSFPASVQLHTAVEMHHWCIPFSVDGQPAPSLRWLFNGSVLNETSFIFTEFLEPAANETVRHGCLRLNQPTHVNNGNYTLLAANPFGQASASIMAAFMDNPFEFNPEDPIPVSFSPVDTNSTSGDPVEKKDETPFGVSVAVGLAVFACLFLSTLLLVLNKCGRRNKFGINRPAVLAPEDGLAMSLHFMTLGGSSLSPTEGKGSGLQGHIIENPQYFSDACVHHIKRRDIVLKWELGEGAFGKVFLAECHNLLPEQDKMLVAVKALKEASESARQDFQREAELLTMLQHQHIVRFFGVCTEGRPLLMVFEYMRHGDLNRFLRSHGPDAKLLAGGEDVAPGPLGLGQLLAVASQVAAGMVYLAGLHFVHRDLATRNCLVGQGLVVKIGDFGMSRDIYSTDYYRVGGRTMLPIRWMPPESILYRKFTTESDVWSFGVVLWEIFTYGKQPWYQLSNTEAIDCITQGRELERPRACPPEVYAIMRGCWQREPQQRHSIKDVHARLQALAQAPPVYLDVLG

Turning to `O=C(NS(=O)(=O)c1ccc2c(c1)OCO2)c1cnn2ccc(N3CCC[C@@H]3c3cc(F)ccc3F)cc12` [Example 35, (R)-N-(benzo[d][1,3]dioxol-5-ylsulfonyl)-5-(2-(2,5-difluorophenyl)pyrrolidin-1-yl)pyrazolo[1,5-a]pyridine-3-carboxamide], the IC50 on TrkA kinase (setting [2]) is 50 to 100 nM. Moreover, in series [1], the half-life at 1 μM was greater than 1.33 h.
As for `CC(C)(C)S(=O)(=O)NC(=O)c1cnn2ccc(N3CCC[C@@H]3c3cc(F)ccc3OCC3CC3)cc12` [Example 46, (R)-N-(tert-butylsulfonyl)-5-(2-(2-(cyclopropylmethoxy)-5-fluorophenyl)pyrrolidin-1-yl)pyrazolo[1,5-a]pyridine-3-carboxamide], the IC50 at TrkA kinase (setting [2]) is 50 to 100 nM. The molecule further registered a half-life at 1 μM in series [1] greater than 1.33 h.
`CC1OCCC1S(=O)(=O)NC(=O)c1cnn2ccc(N3CCC[C@@H]3c3cc(F)ccc3F)cc12` (stereo partly drawn) [Example 24, 5-((R)-2-(2,5-difluorophenyl)pyrrolidin-1-yl)-N-((2-methyltetrahydrofuran-3-yl)sulfonyl)pyrazolo[1,5-a] pyridine-3-carboxamide]: the IC50 on TrkA kinase (setting [3]) was in the range of 100 to 500 nM. The half-life at 1 μM in series [1] is greater than 1.33 h.
Regarding `O=C(NS(=O)(=O)c1ccc(F)cc1)c1cnn2ccc(N3CCC[C@@H]3c3cc(F)ccc3F)cc12` [Example 1, (R)-5-(2-(2,5-difluorophenyl)pyrrolidin-1-yl)-N-((4-fluorophenyl)sulfonyl)pyrazolo[1,5-a]pyridine-3-carboxamide], at TrkA kinase (setting [3]), the IC50 is 100 to 500 nM. In series [1], this molecule displayed a half-life at 1 μM greater than 1.33 h.
For `CCOc1ccc(F)cc1[C@H]1CCCN1c1ccn2ncc(C(=O)NS(=O)(=O)C(C)(C)C)c2c1` [Example 45, (R)-N-(tert-butylsulfonyl)-5-(2-(2-ethoxy-5-fluorophenyl)pyrrolidin-1-yl)pyrazolo[1,5-a]pyridine-3-carboxamide], the IC50 on TrkA kinase (setting [2]) fell in the range of 50 to 100 nM. The half-life at 1 μM in series [1] was greater than 1.33 h.
With `CCS(=O)(=O)NC(=O)c1cnn2ccc(N3CCC[C@@H]3c3cc(F)ccc3F)cc12` [Example 3, (R)-5-(2-(2,5-difluorophenyl)pyrrolidin-1-yl)-N-(ethylsulfonyl)pyrazolo[1,5-a]pyridine-3-carboxamide], the half-maximal inhibitory concentration (IC50) on TrkA kinase (setting [3]) lay within 100 to 500 nM. The same molecule showed a half-life at 1 μM in series [1] greater than 1.33 h.
Take `CC(C)(C)S(=O)(=O)NC(=O)c1cnn2ccc(N3CCCC3c3cc(F)cc4c3OCCO4)cc12` (single isomer, unassigned) [Example 50, N-(tert-butylsulfonyl)-5-(2-(7-fluoro-2,3-dihydrobenzo [b][1,4]dioxin-5-yl)pyrrolidin-1-yl)pyrazolo[1,5-a]pyridine-3-carboxamide]: the IC50 at TrkA kinase (setting [3]) fell in the range of 100 to 500 nM. The molecule also showed a half-life at 1 μM in series [1] greater than 1.33 h.
